Test: Turnover to metabolites in cryopreserved hepatocytes
Settings: hepatocytes, 20 μM
Procedure: Chromatographic analyses were performed with a Waters Alliance model 2695 HPLC system (Waters Corp., Milford, Mass.) that was equipped with a built-in autosampler. The column eluent was monitored with a model 996 diode array UV detector, set to monitor 250 nm, and a FloOne β Model A525 radioactivity flow detector (Perkin Elmer) with a 250 μL flow cell. Separation of the parent compound from metabolites was accomplished using a Discovery C18 column, 250×4.6 mm, 5 μm (Supelco, Bellefonte, Pa.) at an ambient temperature of approximately 20° C. Mobile phase A was 10 mM ammonium acetate (pH 4.5) and mobile phase B was acetonitrile and they were delivered at 1 mL/min using the gradient described in Table 10. The Ultima Flo M scintillant flow rate was 3 mL/min.
Flo-One analytical software (version 3.65) was utilized to integrate the radioactive peaks. Means and standard deviations were calculated using Microsoft Excel® 2000. Micromass MassLynx software (version 4.0, Waters Corp.) was used for control of LC/MS equipment and recording of data from LC/MS analyses.

SMILES: COc1cc(N2CCN(C3CCN(c4ccc(F)c5cccnc45)CC3)CC2)c2ncccc2c1 [[^14C]COMPOUND I, [piperazine-^14C(U)]-5-fluoro-8-(4-(4-(6-methoxyquinolin-8-yl)piperazin-1-yl)piperidin-1-yl)quinoline trisuccinate]
- average turnover to metabolites (both, human, 1 h): 13%
- average turnover to metabolites (both, human, 4 h): 18%
- average turnover to metabolites (dog, 1 h): 8%
- average turnover to metabolites (dog, 4 h): 12%
- average turnover to metabolites (male, rat, 1 h): 32%
- average turnover to metabolites (male, rat, 4 h): 38%
